From ChEMBL document CHEMBL5150041, “Discovery of novel N-(1-benzyl-1H-imidazol-2-yl)amide derivatives as melanocortin 1 receptor agonists” (Bioorg Med Chem Lett, 2022)

Tests used:
[1] = target: T1, Melanocyte-stimulating hormone receptor (Homo sapiens, UniProt Q01726); experiment: Agonist activity at human MC1R assessed as increase in alpha-MSH induced cAMP level; format: functional
Target sequence in this assay (Q01726 whole entry): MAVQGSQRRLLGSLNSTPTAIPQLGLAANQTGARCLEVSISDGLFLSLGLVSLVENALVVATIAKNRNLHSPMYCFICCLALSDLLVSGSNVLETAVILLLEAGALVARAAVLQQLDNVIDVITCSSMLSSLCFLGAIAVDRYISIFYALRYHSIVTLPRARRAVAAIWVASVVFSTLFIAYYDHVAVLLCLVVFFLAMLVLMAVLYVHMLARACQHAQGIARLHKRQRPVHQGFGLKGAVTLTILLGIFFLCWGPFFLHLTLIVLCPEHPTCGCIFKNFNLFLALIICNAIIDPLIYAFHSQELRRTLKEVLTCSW

[2] = target: T1, Melanocyte-stimulating hormone receptor; experiment: Agonist activity at human MC1R assessed as increase in alpha-MSH induced cAMP level at 10 uM relative to control; format: functional
Target sequence in this assay (Q01726 whole entry, looked up): as the sequence (Q01726 whole entry) above

[3] = Metabolic stability in human assessed as intrinsic clearance measured per mg protein; format: ADME
[4] = target: T1, Melanocyte-stimulating hormone receptor; experiment: Intrinsic agonist activity at human MC1R assessed as increase in alpha-MSH induced cAMP level by measuring maximum response relative to control; format: functional; conditions: filed as agonist
Target sequence in this assay (Q01726 whole entry, looked up): as the sequence (Q01726 whole entry) above

| Structure (SMILES) | EC50 [1] [nM] | Activity [2] [%] | CL [3] [µL/min] | Intrinsic activity [4] [%] | Activity ([2]; filed as agonist) [%] |
| --- | --- | --- | --- | --- | --- |
| CC(C)(C)N1C[C@@H](C(=O)Nc2ccccc2Cc2ccccc2)[C@H](c2ccc(F)cc2F)C1 | > 10000 | 2.8 | – | – | – |
| CC(C)(C)N1C[C@@H](C(=O)Nc2nc3ccccc3n2CCc2ccccc2)[C@H](c2ccc(F)cc2F)C1 | > 10000 | 7.5 | – | – | – |
| CC(C)(C)N1C[C@@H](C(=O)Nc2ncnn2Cc2ccccc2)[C@H](c2ccc(F)cc2F)C1 | > 10000 | 3.7 | – | – | – |
| CC(C)(C)N1C[C@@H](C(=O)Nc2nc3ccccc3n2-c2ccccc2)[C@H](c2ccc(F)cc2F)C1 | > 10000 | 7 | – | – | – |
| CC(C)(C)N1C[C@@H](C(=O)Nc2nccn2Cc2ccccc2Cl)[C@H](c2ccc(F)cc2F)C1 | 1270 | – | – | 65 | – |
| Cn1c(NC(=O)[C@@H]2CN(C(C)(C)C)C[C@H]2c2ccc(F)cc2F)nc2ccccc21 | > 10000 | 2.5 | – | – | – |
| CC(C)(C)N1C[C@@H](C(=O)Nc2nccn2Cc2ccccc2-c2ccccc2)[C@H](c2ccc(F)cc2F)C1 | 527 | – | 860 | 79 | – |
| CC(C)(C)N1C[C@@H](C(=O)Nc2nccn2Cc2ccc(Cl)cc2)[C@H](c2ccc(F)cc2F)C1 | > 10000 | 18 | – | – | – |
| CC(C)(C)N1C[C@@H](C(=O)Nc2nccn2Cc2ccccc2)[C@H](c2ccc(F)cc2F)C1 | 4660 | – | – | 54 | – |
| CC(C)(C)N1C[C@@H](C(=O)Nc2nccn2Cc2ccccc2N2CCC(CC(=O)O)CC2)[C@H](c2ccc(F)cc2F)C1 | 1980 | – | 39 | – | 64 |
| CC(C)(C)N1C[C@@H](C(=O)Nc2nc3ccccc3n2Cc2ccccc2)[C@H](c2ccc(F)cc2F)C1 | – | – | – | – | 53 |
| CC(C)(C)N1C[C@@H](C(=O)Nc2nccn2Cc2cccc(Cl)c2)[C@H](c2ccc(F)cc2F)C1 | 1270 | – | – | 50 | – |

Continued by falling EC50 [1], values first:

| EC50 [1] [nM] | Activity [2] [%] | CL [3] [µL/min] | Intrinsic activity [4] [%] | Activity ([2]; filed as agonist) [%] | Structure (SMILES) |
| --- | --- | --- | --- | --- | --- |
| 460 | – | < 10 | 104 | – | CC(C)(C)N1C[C@@H](C(=O)Nc2nccn2Cc2ccccc2N2CCC(C(=O)O)CC2)[C@H](c2ccc(F)cc2F)C1 |
| 386 | – | 450 | 80 | – | CC(C)(C)N1C[C@@H](C(=O)Nc2nccn2Cc2ccccc2N2CCC(C(N)=O)CC2)[C@H](c2ccc(F)cc2F)C1.Cl |
| 339 | – | 610 | 77 | – | CC(C)(C)N1C[C@@H](C(=O)Nc2nccn2Cc2ccccc2N2CCCCC2)[C@H](c2ccc(F)cc2F)C1.Cl |
| 318 | – | 28 | 101 | – | Cc1ccc(Cn2ccnc2NC(=O)[C@@H]2CN(C(C)(C)C)C[C@H]2c2ccc(F)cc2F)c(N2CCC(C(=O)O)CC2)c1 |
| 219 | – | 660 | 86 | – | CC(C)(C)N1C[C@@H](C(=O)Nc2nccn2Cc2ccccc2N2CCOCC2)[C@H](c2ccc(F)cc2F)C1.Cl |
| 77 | – | 25 | 158 | – | CC(C)(C)N1C[C@@H](C(=O)Nc2nccn2Cc2ccc(C(F)(F)F)cc2N2CCC(C(=O)O)CC2)[C@H](c2ccc(F)cc2F)C1 |
